Literature values as cited in patent US10296863B2, “Wireless sensor devices for post-harvest crop quality and pest management” (priority 2017, dated 2019).
Where two headings read alike, the source gives them in different places.

Legend:
[1] = system: tobacco moth and susceptible cigarette beetle
[2] = system: resistant cigarette beetle
[3] = tobacco temperature 16-20 °C (61-68 °F), 300 ppm phosphine at the bale/case centre

Which results are given for `P` [phosphine]?
Minimum Exposure Time to achieve 100% control [1, 3]: 6 days; Minimum Exposure Time to achieve 100% control ([1]; tobacco temperature >20 °C (>68 °F), 200 ppm phosphine at the bale/case centre): 4 days; Minimum Exposure Time to achieve 100% control [2, 3]: 12 days; Minimum Exposure Time to achieve 100% control ([2]; tobacco temperature 20-25 °C (68-77 °F), 300 ppm phosphine at the bale/case centre): 12 days; Minimum Exposure Time to achieve 100% control ([2]; tobacco temperature 20-25 °C (68-77 °F), 700 ppm phosphine at the bale/case centre): 10 days; Minimum Exposure Time to achieve 100% control ([2]; tobacco temperature >25 °C (>77 °F), 300 ppm phosphine at the bale/case centre): 12 days; Minimum Exposure Time to achieve 100% control ([2]; tobacco temperature >25 °C (>77 °F), 600 ppm phosphine at the bale/case centre): 6 days
